Reference: PubChem BioAssay AID330 (DTP/NCI, 2004)
Several values for one entry are separate records, joined by “and”; a condition that tells them apart may be missing. Equal entries are not always repeated. Toxic doses and inconclusive results are not listed.

System: P388 leukemia ip, CD2F1 mice, survival T/C
Test: NCI In Vivo Anticancer Drug Screen. Data for tumor model P388 Leukemia (intraperitoneal) in CD2F1 (CDF1) mice
Conditions: endpoint: median survival time, higher = longer survival
Summary of the method: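 Mice carrying the transplanted tumor received test compound or vehicle. Survival was recorded in each group, and the value is the treated-group measurement divided by that of the vehicle-treated control group.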

[1] = dose: 60.0 mg/kg/injection, schedule: Q01DX005 (ip), vehicle: Klucel (hydroxypropylcellulose) (HPC)
[2] = dose: 120.0 mg/kg/injection, schedule: Q01DX005 (ip), vehicle: Klucel (hydroxypropylcellulose) (HPC)
[3] = dose: 240.0 mg/kg/injection, schedule: Q01DX005 (ip), vehicle: Klucel (hydroxypropylcellulose) (HPC)
[4] = dose: 50.0 mg/kg/injection, schedule: Q01DX009 (ip), vehicle: saline with Tween-80
[5] = dose: 60.0 mg/kg/injection, schedule: Q01DX005 (ip), vehicle: saline
[6] = dose: 120.0 mg/kg/injection, schedule: Q01DX005 (ip), vehicle: saline
[7] = dose: 240.0 mg/kg/injection, schedule: Q01DX005 (ip), vehicle: saline
[8] = dose: 50.0 mg/kg/injection, schedule: Q01DX005 (ip), vehicle: saline with Tween-80
[9] = dose: 100.0 mg/kg/injection, schedule: Q01DX005 (ip), vehicle: saline with Tween-80
[10] = dose: 200.0 mg/kg/injection, schedule: Q01DX005 (ip), vehicle: saline with Tween-80

O=[N+]([O-])c1cccc(Cl)c1C(Nc1nncs1)Nc1nncs1
T/C [1]: 96 % of control
T/C [2]: 106 % of control
T/C [3]: 118 % of control

O=C1NC2(CCCCC2)C(=O)N1CCCCCN(CCCl)CCCl
T/C (dose: 1.5 mg/kg/injection, schedule: Q01DX005 (ip), vehicle: saline): 111 % of control
T/C (dose: 3.0 mg/kg/injection, schedule: Q01DX005 (ip), vehicle: saline): 119 % of control
T/C (dose: 40.0 mg/kg/injection, schedule: Q01DX005 (ip), vehicle: saline): 160 % of control

CC1(C)CC(C)(C)C([Se]C2=C(O)C(=O)C(C)(C)CC2(C)C)=C(O)C1=O
T/C [4]: 100 % of control
T/C (dose: 100.0 mg/kg/injection, schedule: Q01DX009 (ip), vehicle: saline with Tween-80): 101 % of control
T/C (dose: 200.0 mg/kg/injection, schedule: Q01DX009 (ip), vehicle: saline with Tween-80): 94 % of control

C=CCCCCCCCCCC(=O)C=C
T/C (dose: 2.75 mg/kg/injection, schedule: Q01DX005 (ip), vehicle: Klucel (hydroxypropylcellulose) (HPC)): 98 % of control
T/C (dose: 5.5 mg/kg/injection, schedule: Q01DX005 (ip), vehicle: Klucel (hydroxypropylcellulose) (HPC)): 99 % of control
T/C (dose: 11.0 mg/kg/injection, schedule: Q01DX005 (ip), vehicle: Klucel (hydroxypropylcellulose) (HPC)): 92 % of control
T/C (dose: 22.0 mg/kg/injection, schedule: Q01DX005 (ip), vehicle: Klucel (hydroxypropylcellulose) (HPC)): 92 % of control
T/C (dose: 44.0 mg/kg/injection, schedule: Q01DX005 (ip), vehicle: Klucel (hydroxypropylcellulose) (HPC)): 91 % of control

CC(C)CC(CO)Cc1nc2ccccc2[nH]1 (stereo unspecified)
T/C (dose: 60.0 mg/kg/injection, schedule: Q01DX005 (ip), vehicle: saline with Tween-80): 114 % of control
T/C (dose: 120.0 mg/kg/injection, schedule: Q01DX005 (ip), vehicle: saline with Tween-80): 105 % of control

CN(C=O)/C=C1\CC(OO)NC1=O (stereo unspecified)
T/C [5]: 100 % of control
T/C [6]: 101 % of control
T/C [7]: 103 % of control

CC(C)CC(NC=O)C(=O)O (stereo unspecified)
T/C (dose: 50.0 mg/kg/injection, schedule: Q01DX005 (ip), vehicle: Klucel (hydroxypropylcellulose) (HPC)): 104 % of control and 109 % of control
T/C (dose: 100.0 mg/kg/injection, schedule: Q01DX005 (ip), vehicle: Klucel (hydroxypropylcellulose) (HPC)): 95 % of control and 100 % of control
T/C (dose: 200.0 mg/kg/injection, schedule: Q01DX005 (ip), vehicle: Klucel (hydroxypropylcellulose) (HPC)): 90 % of control

Cc1cccc2nccn12
T/C (dose: 6.25 mg/kg/injection, schedule: Q01DX009 (ip), vehicle: saline with Tween-80): 97 % of control
T/C (dose: 12.5 mg/kg/injection, schedule: Q01DX009 (ip), vehicle: saline with Tween-80): 95 % of control
T/C (dose: 25.0 mg/kg/injection, schedule: Q01DX009 (ip), vehicle: saline with Tween-80): 97 % of control
T/C [4]: 100 % of control

C=[CH][Sn]([CH]=C)([c]1ccccc1)[c]1ccccc1
T/C (dose: 50.0 mg/kg/injection, schedule: Q01DX005 (ip), vehicle: saline): 107 % of control
T/C (dose: 100.0 mg/kg/injection, schedule: Q01DX005 (ip), vehicle: saline): 108 % of control
T/C (dose: 200.0 mg/kg/injection, schedule: Q01DX005 (ip), vehicle: saline): 104 % of control

COC(=O)C1CCCN1 (stereo unspecified)
T/C [5]: 105 % of control
T/C [6]: 111 % of control
T/C [7]: 104 % of control

CC(Cc1ccc(O)c(O)c1)C(C)Cc1ccc(O)c(O)c1 (stereo unspecified)
T/C (dose: 100.0 mg/kg/injection, schedule: Q01DX009 (ip), vehicle: saline): 98 % of control and 106 % of control
T/C (dose: 200.0 mg/kg/injection, schedule: Q01DX009 (ip), vehicle: saline): 101 % of control and 102 % of control
T/C (dose: 400.0 mg/kg/injection, schedule: Q01DX009 (ip), vehicle: saline): 105 % of control and 94 % of control
T/C (dose: 600.0 mg/kg/injection, schedule: Q01DX009 (ip), vehicle: saline): 98 % of control and 90 % of control

O=C(Nc1cccc2c1C(=O)c1cccc(Nc3ccc(NC(=O)c4ccccc4)c4c3C(=O)c3ccccc3C4=O)c1C2=O)c1ccccc1
T/C [8]: 95 % of control
T/C [9]: 89 % of control
T/C [10]: 93 % of control

O=C1C=C(c2ccccc2)S(=O)(=O)c2c(O)cccc21
T/C [8]: 121 % of control
T/C [9]: 119 % of control
T/C [10]: 118 % of control

Cc1ccc(N2C(=O)CCSC2=S)cc1Cl
T/C (dose: 50.0 mg/kg/injection, schedule: Q01DX009 (ip), vehicle: Klucel (hydroxypropylcellulose) (HPC)): 115 % of control
T/C (dose: 50.0 mg/kg/injection, schedule: Q01DX009 (ip), vehicle: suspension in saline): 87 % of control
T/C (dose: 100.0 mg/kg/injection, schedule: Q01DX009 (ip), vehicle: Klucel (hydroxypropylcellulose) (HPC)): 114 % of control and 122 % of control
T/C (dose: 100.0 mg/kg/injection, schedule: Q01DX009 (ip), vehicle: suspension in saline): 90 % of control
T/C (dose: 200.0 mg/kg/injection, schedule: Q01DX009 (ip), vehicle: Klucel (hydroxypropylcellulose) (HPC)): 86 % of control
T/C (dose: 200.0 mg/kg/injection, schedule: Q01DX009 (ip), vehicle: suspension in saline): 99 % of control

O=C1/C(=C/c2ccccc2)CNC/C1=C\c1ccccc1
T/C [1]: 102 % of control
T/C [2]: 111 % of control
T/C [3]: 116 % of control
